Tests used:
[1] = molecular target: T1, CYP2A6 (commercial, Vivid kit Baculosomes) (Homo sapiens, UniProt P11509); assay: fluorescent 3-cyano coumarin turnover, Morrison tight-binding fit; assay type: biochemical
T1 sequence (P11509 1-494): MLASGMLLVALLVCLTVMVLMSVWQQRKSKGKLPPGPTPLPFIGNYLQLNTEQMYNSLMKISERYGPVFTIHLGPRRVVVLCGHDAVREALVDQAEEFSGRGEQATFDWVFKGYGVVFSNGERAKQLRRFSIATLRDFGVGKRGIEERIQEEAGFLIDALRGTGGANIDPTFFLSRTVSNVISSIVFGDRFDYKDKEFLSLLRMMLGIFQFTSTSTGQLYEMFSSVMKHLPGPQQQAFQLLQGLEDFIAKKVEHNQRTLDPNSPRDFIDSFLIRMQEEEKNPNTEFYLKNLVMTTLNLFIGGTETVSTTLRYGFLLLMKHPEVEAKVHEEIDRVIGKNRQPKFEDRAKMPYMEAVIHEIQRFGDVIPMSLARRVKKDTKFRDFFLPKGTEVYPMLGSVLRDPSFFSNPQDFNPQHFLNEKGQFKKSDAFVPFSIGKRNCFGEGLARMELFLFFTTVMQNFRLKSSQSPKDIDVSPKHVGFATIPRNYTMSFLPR

[2] = substrate: N#Cc1cc2ccccc2oc1=O; assay: purified protein; assay type: biochemical, Homo sapiens; details: 10 nM CYP2A6, 30 μM NADPH, 0.25-32 μM substrate

With `CCCCCC(O)/C=C/C=O` (centres unmarked) [HNE] the Ki [1] was 208 ± 35.4 µM.

B1: CYP2A6 (commercial, Vivid kit Baculosomes) (Homo sapiens) (protein)
chain: MLASGMLLVALLVCLTVMVLMSVWQQRKSKGKLPPGPTPLPFIGNYLQLNTEQMYNSLMKISERYGPVFTIHLGPRRVVVLCGHDAVREALVDQAEEFSGRGEQATFDWVFKGYGVVFSNGERAKQLRRFSIATLRDFGVGKRGIEERIQEEAGFLIDALRGTGGANIDPTFFLSRTVSNVISSIVFGDRFDYKDKEFLSLLRMMLGIFQFTSTSTGQLYEMFSSVMKHLPGPQQQAFQLLQGLEDFIAKKVEHNQRTLDPNSPRDFIDSFLIRMQEEEKNPNTEFYLKNLVMTTLNLFIGGTETVSTTLRYGFLLLMKHPEVEAKVHEEIDRVIGKNRQPKFEDRAKMPYMEAVIHEIQRFGDVIPMSLARRVKKDTKFRDFFLPKGTEVYPMLGSVLRDPSFFSNPQDFNPQHFLNEKGQFKKSDAFVPFSIGKRNCFGEGLARMELFLFFTTVMQNFRLKSSQSPKDIDVSPKHVGFATIPRNYTMSFLPR
B1 was tested, and the Km [2] was 12 ± 6 µM.

From article doi:10.1101/2024.09.27.615266v1 (biorxiv, 2024)
